{
  "source": "patent US20230117397A1",
  "about": "“PIRFENIDONE FOR CORONAVIRUS TREATMENT” (Excalibur Pharmaceuticals, Inc., priority 2020, published 2023)",
  "origin": "cited, not measured here",
  "key": {"[1]": {"conditions": "major urinary metabolite of pirfenidone"}, "[2]": {"test_system": "TNF-α", "conditions": "pretreatment 5 minutes before LPS"}, "[3]": {"test_system": "IL-12", "conditions": "pirfenidone pre-treatment before LPS"}, "[4]": {"test_system": "IFN-γ", "conditions": "pirfenidone pre-treatment before LPS"}, "[5]": {"test_system": "IL-10", "conditions": "pirfenidone pre-treatment; by 3 hours"}, "[6]": {"test_system": "endotoxic shock", "conditions": "for survival: pretreatment 15 minutes before LPS"}, "[7]": {"test_system": "TNF-α"}, "[8]": {"test_system": "TNF-α", "conditions": "pirfenidone added after cell stimulation with endotoxin"}, "[9]": {"test_system": "IFN-γ", "conditions": "pirfenidone added after cell stimulation with endotoxin"}, "[10]": {"test_system": "TNF-α", "conditions": "once daily 50 mg/kg/day or 100 mg/kg/day; dose dependent"}, "[11]": {"test_system": "IL-10", "conditions": "once daily 50 mg/kg/day or 100 mg/kg/day; dose dependent"}, "[12]": {"test_system": "IL-6", "conditions": "once daily 50 mg/kg/day or 100 mg/kg/day; dose dependent"}, "[13]": {"test_system": "silicosis (intratracheal silica slurry)"}, "[14]": {"conditions": "MALDI-FTICR MSI"}, "[15]": {"assay": "not given", "remark": "listed apart in the source"}, "[16]": {"conditions": "oral, healthy adults"}, "[17]": {"assay": "not given", "remark": "listed apart in the source"}},
  "note": "Like-named read-outs stand apart in the source and are kept apart here.",
  "data": [
    {"compound": "O=C(O)c1ccc(=O)n(-c2ccccc2)c1", "note": "[5-carboxy-pirfenidone]", "values": [
      {"measurement": "biological activity", "setting": "[1]", "value": "limited to no biological activity"}
    ]},
    {"compound": "Cc1ccc(=O)n(-c2ccccc2)c1", "note": "[pirfenidone, 5-methyl-1-phenyl-2-(1H)-pyridone]", "values": [
      {"measurement": "TNF-α levels suppressed", "setting": "[2]", "value": 97, "unit": "%"},
      {"measurement": "IL-12 suppressed", "setting": "[3]", "value": 84, "unit": "%"},
      {"measurement": "IFN-γ inhibited", "setting": "[4]", "value": 91, "unit": "%"},
      {"measurement": "IL-10 expression enhanced", "setting": "[5]", "value": "approximately 27 fold"},
      {"measurement": "survival", "setting": "[6]; 100 mg/kg, 4/8", "value": 50, "unit": "%"},
      {"measurement": "survival", "setting": "[6]; 500 mg/kg, 8/8", "value": 100, "unit": "%"},
      {"measurement": "protection from death", "setting": "[6]; pretreatment 3 hours before LPS", "value": "partial protection"},
      {"measurement": "protection from death", "setting": "[6]; pretreatment 6 hours or more before LPS", "value": "none"},
      {"measurement": "survived (survivors/animals)", "setting": "[6]; single oral dose 1 hour after LPS", "value": "5/5"},
      {"measurement": "survived (survivors/animals)", "setting": "[6]; single oral dose 3 hours after LPS", "value": "4/5"},
      {"measurement": "survived (survivors/animals)", "setting": "[6]; single oral dose 5 hours after LPS", "value": "1/5"},
      {"measurement": "TNF-α expression", "setting": "[7]; 200 mg/kg immediately after LPS", "value": "inhibited"},
      {"measurement": "TNF-α expression inhibited", "setting": "[7]; 200 mg/kg, 30 or 60 minutes before or after LPS", "value": "not"},
      {"measurement": "levels of secreted TNF-α protein", "setting": "[8]", "value": "significantly decrease"},
      {"measurement": "steady state levels of TNF-α RNA", "setting": "[8]", "value": "did not change"},
      {"measurement": "levels of secreted IFN-γ protein", "setting": "[9]", "value": "significantly decrease"},
      {"measurement": "steady state levels of IFN-γ RNA", "setting": "[9]", "value": "did not change"},
      {"measurement": "TNF-α", "setting": "[10]", "value": "significant reduction"},
      {"measurement": "IL-10", "setting": "[11]", "value": "significant reduction"},
      {"measurement": "IL-6", "setting": "[12]", "value": "significant reduction"},
      {"measurement": "dose response difference in inflammation and fibrosis", "setting": "[13]; between the 50 mg/kg/day and 100 mg/kg/day treatment groups", "value": "approximately 15%"},
      {"measurement": "inflammation and resulting fibrosis", "setting": "[13]; once daily 50 mg/kg/day or 100 mg/kg/day", "value": "significantly decreased"},
      {"measurement": "time to maximum serum concentration", "setting": "after dosing", "value": "within an hour"},
      {"measurement": "terminal half-life", "setting": "in vivo", "value": "approximately 2 hours"},
      {"measurement": "T1/2 in kidney tissue", "setting": "[14]; kidney tissue", "value": 49, "unit": "min"},
      {"measurement": "T1/2 in liver tissue", "setting": "[14]; liver tissue", "value": 46, "unit": "min"},
      {"measurement": "T1/2 in lung tissue", "setting": "[14]; lung tissue", "value": 67, "unit": "min"},
      {"measurement": "half-life", "setting": "[15]; following from the clearance", "value": "less than 2 hours"},
      {"measurement": "drug clearance", "setting": "[15]; oral administration", "value": "approximately 30 ml/min/kg"},
      {"measurement": "terminal half-life", "setting": "[16]", "value": "approximately 2.5 hours"},
      {"measurement": "time to maximum levels in blood", "setting": "[16]; fasting", "value": 0.5, "unit": "h"},
      {"measurement": "time to maximum levels in blood", "setting": "[16]; post food", "value": 2, "unit": "h"},
      {"measurement": "most common side effects", "setting": "[17]; 10% or more greater than placebo", "value": "nausea, dyspepsia and rash"},
      {"measurement": "AST/ALT elevation, incidence", "setting": "[17]; in vivo", "value": "< 3", "unit": "%"},
      {"measurement": "bilirubin elevation, incidence", "setting": "[17]; very rarely", "value": 0.1, "unit": "%"}
    ]}
  ]
}
